Experimental data as given in ChEMBL document CHEMBL4823283, “Vomifoliol isolated from mangrove plant Ceriops tagal inhibits the NFAT signaling pathway with CN as the target enzyme in vitro” (Bioorg Med Chem Lett, 2021).

Columns and labels:
[1] = target: T1, Nuclear factor of activated T-cells, cytoplasmic 1 (Homo sapiens) (UniProt O95644); test: Inhibition of human NFAT-1 in human Jurkat cells assessed as decrease of PMA/ionomycin-induced NFAT dephosphorylation measured after 44 hrs by western blot assay; type: cell-based; settings: dose 5-25 µM
T1 sequence (whole entry): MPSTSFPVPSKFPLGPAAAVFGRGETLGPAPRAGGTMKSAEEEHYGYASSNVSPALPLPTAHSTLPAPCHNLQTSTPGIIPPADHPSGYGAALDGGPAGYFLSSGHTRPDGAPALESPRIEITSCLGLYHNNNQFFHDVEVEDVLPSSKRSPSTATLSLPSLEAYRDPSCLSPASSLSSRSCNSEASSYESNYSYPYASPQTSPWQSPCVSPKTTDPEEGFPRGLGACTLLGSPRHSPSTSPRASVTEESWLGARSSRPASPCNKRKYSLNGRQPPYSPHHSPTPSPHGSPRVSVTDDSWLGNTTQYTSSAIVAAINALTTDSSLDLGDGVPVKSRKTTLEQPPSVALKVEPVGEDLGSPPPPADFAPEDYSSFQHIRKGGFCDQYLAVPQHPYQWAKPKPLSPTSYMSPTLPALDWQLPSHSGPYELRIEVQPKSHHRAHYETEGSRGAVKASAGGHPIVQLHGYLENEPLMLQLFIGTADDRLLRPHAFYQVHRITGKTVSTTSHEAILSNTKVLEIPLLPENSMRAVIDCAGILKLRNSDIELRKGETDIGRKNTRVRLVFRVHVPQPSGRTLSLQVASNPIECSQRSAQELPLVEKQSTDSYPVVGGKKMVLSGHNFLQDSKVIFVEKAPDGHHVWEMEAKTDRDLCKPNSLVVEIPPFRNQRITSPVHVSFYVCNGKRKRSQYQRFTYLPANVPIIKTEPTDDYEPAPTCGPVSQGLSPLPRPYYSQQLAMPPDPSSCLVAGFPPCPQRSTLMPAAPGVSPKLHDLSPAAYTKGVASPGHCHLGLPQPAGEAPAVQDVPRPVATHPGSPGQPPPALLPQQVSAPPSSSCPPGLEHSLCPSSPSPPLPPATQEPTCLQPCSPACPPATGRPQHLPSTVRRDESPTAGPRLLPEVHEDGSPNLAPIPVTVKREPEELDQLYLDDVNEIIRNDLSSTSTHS

Jurkat [2] = test: Cytotoxicity against human Jurkat cells assessed as cell survival at 1 to 40 uM measured after 48 hrs by MTT assay relative to control; type: functional; settings: dose 1-40 µM
[3] = Inhibition of calcineurin (unknown origin); design: species or system Homo sapiens
[4] = target: T1, Nuclear factor of activated T-cells, cytoplasmic 1 (Homo sapiens); test: Inhibition of human NFAT-1 in human Jurkat cells assessed as decrease of PMA/ionomycin-induced IL-2 concentration measured after 44 hrs by western blot assay; type: cell-based; settings: dose 5-25 µM
[5] = target: Protein phosphatase 3 catalytic subunit alpha (Homo sapiens) (UniProt Q08209); test: Inhibition of human calcineurin activity in PMA/ionomycin-induced human Jurkat cells measured after 44 hrs by Malachite green dye based fast green assay; settings: dose 1-100 µM
Jurkat [6] = test: Cytotoxicity against human Jurkat cells assessed as cell survival at 75 to 100 uM measured after 48 hrs by MTT assay relative to control; type: functional; settings: dose 75-100 µM
Jurkat [7] = test: Cytotoxicity against human Jurkat cells assessed as inhibition of PMA/ionomycin-induced proliferation measured after 48 hrs by MTT assay; type: functional, cell-based
Splenocyte [8] = test: Cytotoxicity against mouse splenocytes assessed as cell survival at 1 to 30 uM measured after 48 hrs by CCK-8 assay relative to control; type: functional; settings: dose 1-30 µM
Splenocyte [9] = test: Cytotoxicity against mouse splenocytes assessed as cell survival in presence of ConA measured after 44 hrs by CCK-8 assay; type: functional, cell-based
Splenocyte [10] = test: Cytotoxicity against mouse splenocytes assessed as cell survival at 50 to 100 uM measured after 48 hrs by CCK-8 assay relative to control; type: functional; settings: dose 50-100 µM

CC1=CC(=O)CC(C)(C)[C@@]1(O)/C=C/[C@@H](C)O [BLUMENOL A]
Activity [1]: Dose-Dependent Effect
Activity (Jurkat [2]): >90%
IC50 [3]: 15.1 µM
Activity [4]: Dose-Dependent Effect
Activity [5]: Dose-Dependent Effect
Activity (Jurkat [6]): <90%
Activity (Jurkat [7]): Dose-Dependent Effect
IC50 (Jurkat [7]): 20.2 µM
Activity (Splenocyte [8]): >90%
Activity (Splenocyte [9]): Dose-Dependent Effect
IC50 (Splenocyte [9]): 18.7 µM
Activity (Splenocyte [10]): <90%
